According to US9617244B2, “Antibacterial quinoline derivatives” (JANSSEN PHARMACEUTICA NV, priority 2012, dated 2017):
In brackets after ≈: the same amount, converted by molar mass.

Columns and labels:
[1] = test system: Mycobacterium smegmatis (ATCC607); test: In-vitro anti-bacterial activity against strain M. Smegmatis ATCC607; assay type: cell-based; conditions: 90% inhibitory concentration for bacterial growth, Alamar Blue fluorescence; for IC90 MSM 607: 48 hours; for IC90: Mycolicibacterium smegmatis, ATCC607, 48 h, read-out: IC90 MSM 607
Summary of the method: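 IC90 (μg/ml) derived from Alamar Blue fluorescence (530/590 nm) after 48 h growth at 37 °C under 5% CO2. About 250 CFU per well in Mueller-Hinton broth faced five-fold serial compound dilutions in BSA-containing wells.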

[2] = test system: Staphylococcus aureus (ATCC29213); test: In-vitro anti-bacterial activity, microtitre plate assay, IC90 determination (non-mycobacterial strains); assay type: cell-based; conditions: 90% inhibitory concentration for bacterial growth, resazurin fluorescence; for IC90 STA B29213: 24 hours; for IC90: Staphylococcus aureus, ATCC29213, 24 h, read-out: IC90 STA B29213
Summary of the method: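 Growth inhibition measured fluorometrically with resazurin (530/590 nm) after overnight 37 °C incubation under normal atmosphere. Bacteria added at roughly 100 TCID50 per well in Mueller-Hinton broth to five-fold compound dilution series; IC90 reported in μg/ml.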

Compound	IC90 MSM 607 [1] [mg/L]	IC90 STA B29213 [2] [mg/L]	IC90 [1] [mg/L]	IC90 [2] [mg/L]
CS(=O)(=O)c1ccc2[nH]c(=O)c(C(c3ccc(Cl)cc3)C3(O)CCNC(Cc4ccc(F)c(F)c4)C3)cc2c1 (stereo not drawn) [Compound 215]	17.19 (≈ 30 µM)	13.66 (≈ 23.8 µM)	–	–
Cc1cc(F)ccc1C1CC(O)(C(c2ccc(Cl)cc2)c2cc3cc(S(C)(=O)=O)ccc3[nH]c2=O)CCN1 (stereo not drawn) [Compound 220]	>14.80	>14.80	–	–
Cc1cc(F)ccc1C1CC(O)(C(c2ccc(Cl)cc2)c2cc3cc(S(C)(=O)=O)ccc3[nH]c2=O)CCN1 (stereo not drawn) [Compound 221]	2.96 (≈ 5.33 µM)	3.73 (≈ 6.72 µM)	–	–
Cc1cc(F)ccc1C1CC(O)(C(c2ccc(Cl)cc2)c2cc3cc(S(C)(=O)=O)ccc3[nH]c2=O)CCN1 (stereo not drawn) [Compound 222]	>14.78	>14.78	–	–
Cc1cc(F)ccc1C1CC(O)(C(c2ccc(Cl)cc2)c2cc3cc(S(C)(=O)=O)ccc3[nH]c2=O)CCN1 (stereo not drawn) [Compound 223]	>14.83	>14.83	–	–
Cc1cc(F)ccc1C1CC(O)(C(c2ccc(Cl)cc2)c2cc3cc(S(C)(=O)=O)ccc3[nH]c2=O)CCN1 (stereo not drawn) [Compound 224]	5.92 (≈ 10.7 µM)	3.73 (≈ 6.72 µM)	–	–
Cc1cc(F)ccc1C1CC(O)(C(c2ccc(Cl)cc2)c2cc3cc(S(C)(=O)=O)ccc3[nH]c2=O)CCN1 (stereo not drawn) [Compound 225]	>14.77	>14.77	–	–
O=c1[nH]c2ccc(Br)cc2cc1C(c1ccc(Cl)cc1)C1(O)CCNCC1Cc1cccc(F)c1 (stereo not drawn) [Compound 229]	3.31 (≈ 5.95 µM)	1.86 (≈ 3.35 µM)	–	–
CSc1ccc2[nH]c(=O)c(C(c3ccc(Cl)cc3)C3(O)CCNC(c4ccccc4)C3)cc2c1 (stereo not drawn) [Compound 230]	1.18 (≈ 2.4 µM)	1.67 (≈ 3.4 µM)	–	–
CSc1ccc2[nH]c(=O)c(C(c3ccc(Cl)cc3)C3(O)CCNC(c4ccccc4)C3)cc2c1 (stereo not drawn) [Compound 231]	2.62 (≈ 5.34 µM)	3.30 (≈ 6.72 µM)	–	–
CSc1ccc2[nH]c(=O)c(C(c3ccc(Cl)cc3)C3(O)CCNC(c4ccccc4)C3)cc2c1 (stereo not drawn) [Compound 232]	5.93 (≈ 12.1 µM)	6.65 (≈ 13.5 µM)	–	–
CSc1ccc2[nH]c(=O)c(C(c3ccc(Cl)cc3)C3(O)CCNC(c4ccccc4)C3)cc2c1 (stereo not drawn) [Compound 233]	1.32 (≈ 2.69 µM)	1.67 (≈ 3.4 µM)	–	–
CSc1ccc2[nH]c(=O)c(C(c3ccc(Cl)cc3)C3(O)CCNC(c4ccccc4)C3)cc2c1 (stereo not drawn) [Compound 234]	3.71 (≈ 7.56 µM)	5.24 (≈ 10.7 µM)	–	–
CSc1ccc2[nH]c(=O)c(C(c3ccc(Cl)cc3)C3(O)CCNC(c4ccccc4)C3)cc2c1 (stereo not drawn) [Compound 235]	6.60 (≈ 13.4 µM)	4.17 (≈ 8.49 µM)	–	–
Cc1cc(F)ccc1C1CC(O)(C(c2ccccc2)c2cc3cc(-c4cccnc4)ccc3[nH]c2=O)CCN1 (stereo not drawn) [Compound 236]	–	–	7.26 (≈ 14 µM)	10.3 (≈ 19.7 µM)
Cc1cc(F)ccc1C1CC(O)(C(c2ccccc2)c2cc3cc(S(C)(=O)=O)ccc3[nH]c2=O)CCN1 (stereo not drawn) [Compound 237]	11.06 (≈ 21.2 µM)	–	–	> 13.9
Cc1cc(F)ccc1C1CC(O)(C(c2ccccc2)c2cc3cc(S(C)(=O)=O)ccc3[nH]c2=O)CCN1 (stereo not drawn) [Compound 238]	>13.99	>13.99	–	–

Compound	IC90 MSM 607 [1] [mg/L]	IC90 STA B29213 [2] [mg/L]	IC90 [1] [mg/L]	IC90 [2] [mg/L]
O=c1[nH]c2ccc(Cl)cc2cc1C(c1ccc(Cl)cc1)C1(O)CCNC(Cc2ccccc2)C1 (stereo not drawn) [Compound 239]	2.97 (≈ 6.02 µM)	1.67 (≈ 3.38 µM)	–	–
O=c1[nH]c2ccc(Cl)cc2cc1C(c1ccc(Cl)cc1)C1(O)CCNC(Cc2ccccc2)C1 (stereo not drawn) [Compound 240]	4.21 (≈ 8.53 µM)	6.67 (≈ 13.5 µM)	–	–
O=c1[nH]c2ccc(Cl)cc2cc1C(c1ccc(Cl)cc1)C1(O)CCNC(Cc2ccccc2)C1 (stereo not drawn) [Compound 241]	3.34 (≈ 6.77 µM)	4.72 (≈ 9.57 µM)	–	–
COc1nc2ccc(SC)cc2cc1C(c1ccc(Cl)cc1)C1(O)CCNC(c2ccc(F)cc2C)C1 (stereo not drawn) [Compound 242]	–	1.51 (≈ 2.81 µM)	1.2 (≈ 2.23 µM)	–
COc1nc2ccc(S(C)(=O)=O)cc2cc1C(c1ccccc1)C1(O)CCNC(c2ccc(F)cc2C)C1 (stereo not drawn) [Compound 253]	>13.43	>13.43	–	–
O=c1[nH]c2ccc(Br)cc2cc1C(c1ccc(Cl)cc1)C1(O)CCNC(CC2CCCCC2)C1 (stereo not drawn) [Compound 254]	3.60 (≈ 6.62 µM)	–	–	3.6 (≈ 6.62 µM)
O=c1[nH]c2ccc(Br)cc2cc1C(c1ccc(Cl)cc1)C1(O)CCNC(CC2CCCCC2)C1 (stereo not drawn) [Compound 255]	7.28 (≈ 13.4 µM)	3.65 (≈ 6.71 µM)	–	–
O=c1[nH]c2ccc(Br)cc2cc1C(c1ccc(Cl)cc1)C1(O)CCNC(CC2CCCCC2)C1 (stereo not drawn) [Compound 258]	3.66 (≈ 6.73 µM)	3.66 (≈ 6.73 µM)	–	–
Cc1cc(F)ccc1C1CC(O)(C(c2ccccc2)c2cc3cc(S(C)(=O)=O)ccc3[nH]c2=O)CCN1 (stereo not drawn) [Compound 263]	>13.89	>13.89	–	–
Cc1cc(F)ccc1C1CC(O)(C(c2ccccc2)c2cc3cc(S(C)(=O)=O)ccc3[nH]c2=O)CCN1 (stereo not drawn) [Compound 264]	3.49 (≈ 6.7 µM)	>13.88	–	–
Cc1cc(F)ccc1C1CC(O)(C(c2ccccc2)c2cc3cc(S(C)(=O)=O)ccc3[nH]c2=O)CCN1 (stereo not drawn) [Compound 265]	13.92 (≈ 26.7 µM)	>13.92	–	–
CSc1ccc2[nH]c(=O)c(C(c3ccc(Cl)cc3)C3(O)CCNC(c4ccc(F)cc4C)C3)cc2c1 (stereo not drawn) [Compound 266]	–	–	2.22 (≈ 4.24 µM)	2.5 (≈ 4.78 µM)
CSc1ccc2[nH]c(=O)c(C(c3ccc(Cl)cc3)C3(O)CCNC(c4ccc(F)cc4C)C3)cc2c1 (stereo not drawn) [Compound 268]	1.40 (≈ 2.68 µM)	1.76 (≈ 3.36 µM)	–	–
Cc1cc(F)ccc1C1CC(O)(C(c2cccc(Cl)c2)c2cc3cc(S(C)(=O)=O)ccc3[nH]c2=O)CCN1 (stereo not drawn) [Compound 269]	>14.75	>14.75	–	–
Cc1cc(F)ccc1C1CC(O)(C(c2cccc(Cl)c2)c2cc3cc(S(C)(=O)=O)ccc3[nH]c2=O)CCN1 (stereo not drawn) [Compound 270]	5.89 (≈ 10.6 µM)	7.42 (≈ 13.4 µM)	–	–
Cc1cc(F)ccc1C1CC(O)(C(c2cccc(Cl)c2)c2cc3cc(S(C)(=O)=O)ccc3[nH]c2=O)CCN1 (stereo not drawn) [Compound 271]	9.34 (≈ 16.8 µM)	7.42 (≈ 13.4 µM)	–	–
